Laboratory results as given in patent publication US7202280B2, “Methods for the treatment and prevention of pancreatitis and for induction of liver regeneration” (priority 2002, dated 2007).
Values joined by “and” are separate entries in the source; they are usually repeats but may differ in a detail not shown here. Equal values may be shown once.

Tests used:
[1] = test system: SSAT transgenic rats (UKUR30); test: Treatment of zinc induced acute pancreatitis in SSAT transgenic rats: survival and severity (histology, plasma amylase, mortality); format: in vivo, rat; design: key to Edema: 0 (absent); 1 (minimal); 4 (maximal); settings: for Edema / Necr. / P-amyl: single animals
Protocol: Formalin-fixed pancreatic specimens were embedded in paraffin, cut into 5-μm-thick slices, and stained with hematoxylin/eosin. The stained sections were coded and scored by the participating gastroenterologist (K.-H. H.) according to the method of Niederau et al. (Niederau, C., Liddle, R. A., Ferrell, L. D., and Grendell, J. H. (1986) J. Clin. Invest. 78, 1056–1063).
(§1) Transgenic UKUR30 female rats (weighting about 200 g) were used for the experiments. Pancreatitis was initiated with zinc 10 mg/kg treatment. Experiments were separated in five different parts (Exp. 1–5). Animals treated with α-MeSPD received 50 mg/kg i.p at the indicated time point(s). The pooled data from all of the experiment is shown in tables 4 A/B/C/D. First histological signs of pancreatic failure were evident within 6 h after the zinc. Pancreatic failure steadily increases until 24 hours when the first animals died. Within 48 hours mortality was almost 70% in control zinc treated rats.
(§2) Tables 4 A/B/C/D present the natural course of zinc induced pancreatitis. Histological scoring along with plasma amylase activity is shown as a measure of severity of pancreatitis. Tissue zinc and polyamine levels and SSAT activity were determined to verify the response of each animal to the treatment. No other data than the number of death animals is shown from deceased animals. Transgenic UKUR30 female rats weighting about 200 grams were used for the experiment. Zinc was injected i.p. 10 mg/kg to initiate acute pancreatitis. Animals treated with MeSpd received one 50 mg/kg dosage i.p. at the indicated time point(s). At indicated time points live animals were sacrificed and pancreas was subjected to further analysis. […] Values for polyamines are expressed as pmoles/mg/wet weight. SSAT pmoles/10 min/mg wet weight.

[2] = test system: rats with cerulein-induced pancreatitis; test: Cerulein-induced pancreatitis; format: in vivo, rat
Protocol: FIG. 7 Effect of pancreatic-associated edema by methylspermidine in rats with cerulein-induced pancreatitis. The animals received cerulein 24 h before sacrifice with or without methylspermidine (50 mg/kg) as a single dose 4 h before cerulein. Three to five animals in each group. Me-Spd, methylspermidine. Administration of cerulein induces a non-necrotizing pancreatitis in rodents. Cerulein-induced pancreatitis is characterized by a pronounced increase in plasma/serum amylase activity.

[3] = test system: SSAT transgenic rats (UKUR30); test: Pancreatic zinc, SSAT activity and polyamine levels in zinc induced pancreatitis treated with MeSpd; format: in vivo; settings: single animals
Protocol: as §1, with “rats. […].” for “rats.”
as §2

[4] = test system: rats with arginine-induced pancreatitis; test: Arginine-induced pancreatitis; format: in vivo, rat
Protocol: FIG. 6 Plasma α-amylase activity in rats with arginine-induced pancreatitis after methylspermidine. The animals received […]-500 mg/kg) 24 h before sacrifice with or without methylspermidine (50 mg/kg) either as a single dose 4 h before arginine or as two doses 20 h and 4 h before arginine. Three to five animals in each group. Arg, Arginine. Me-Spd, methylspermidine. Administration of large quantities of arginine is known to cause acute, necrotizing pancreatitis in rats.

[5] = Zn 24 h, MeSpd 50 mg/kg i.p. at 3 h/8 h
[6] = Zn 24 h, MeSpd 50 mg/kg i.p. at 6 h/12 h
[7] = Zn 24 h, MeSpd 50 mg/kg i.p. at 12 h
[8] = Zn 48 h, MeSpd 50 mg/kg i.p. at 3 h/8 h
[9] = Zn 48 h, MeSpd 50 mg/kg i.p. at 4 h/24 h
[10] = Zn 48 h, MeSpd 50 mg/kg i.p. at 12 h/24 h

CC(N)CCNCCCCN (stereo not drawn) [α-methylspermidine, 1-methylspermidine]
Edema [1, 5]: 0 (2×) and 2 (2×) | Necr. [1, 5]: 0 (0, 0–5%) (2×) and 3 (3, 35–50%) and 4 (4, >50%) | P-amyl [1, 5]: 2743 U/l and 20380 U/l and 11420 U/l and 2801 U/l | Edema [1, 6]: 0 (3×) and 1 (2×) and 2 (2×) and 3 and 4 | Necr. [1, 6]: 0 (0, 0–5%) (4×) and 4 (4, >50%) (4×) and 2 (2, 15–35%) | P-amyl [1, 6]: 2686 U/l and 2153 U/l and 2572 U/l and 30970 U/l and 42250 U/l and 30860 U/l and 28400 U/l and 5110 U/l and 25050 U/l | Edema [1, 7]: 1 and 2 (2×) and 3 | Necr. [1, 7]: 0 (0, 0–5%) and 4 (4, >50%) (2×) and 3 (3, 35–50%) | P-amyl [1, 7]: 3048 U/l and 17170 U/l and 31310 U/l and 18960 U/l | Mortality % ([1]; Zn 24 h, MeSpd treatment yes): 0% | Number of death animals ([1]; Zn 24 h, MeSpd treatment yes, 17 animals): 0 | Edema [1, 8]: 3 (2×) and 2 | Necr. [1, 8]: 4 (4, >50%) | P-amyl [1, 8]: 5867 U/l and 5117 U/l and 29880 U/l | Edema [1, 9]: 0 (3×) and 1 and 3 | Necr. [1, 9]: 0 (0, 0–5%) (4×) and 4 (4, >50%) | P-amyl [1, 9]: 1924 U/l and 2740 U/l and 2908 U/l and 2591 U/l and 3943 U/l | Edema [1, 10]: 3 (2×) and 0 and 2 | Necr. [1, 10]: 4 (4, >50%) (3×) and 0 (0, 0–5%) | P-amyl [1, 10]: 86840 U/l and 2693 U/l and 36470 U/l and 3382 U/l | Mortality % ([1]; Zn 48 h, MeSpd treatment yes): 8% | amylase levels ([2]; cerulein-induced pancreatitis): does not normalize amylase levels | pancreatitis-associated edema ([2]; cerulein, single dose 50 mg/kg): reduces the pancreatitis-associated edema | MeSpd (pancreas) [3, 5]: 1943 pmoles/mg/wet weight and 1425 pmoles/mg/wet weight and 907 pmoles/mg/wet weight and 0 pmoles/mg/wet weight | N^1AcSpd (pancreas) [3, 5]: 54 pmoles/mg/wet weight and 58 pmoles/mg/wet weight and 31 pmoles/mg/wet weight and 0 pmoles/mg/wet weight | PU (pancreas) [3, 5]: 3231 pmoles/mg/wet weight and 2820 pmoles/mg/wet weight and 2269 pmoles/mg/wet weight and 2159 pmoles/mg/wet weight | SPD (pancreas) [3, 5]: 1165 pmoles/mg/wet weight and 265 pmoles/mg/wet weight and 119 pmoles/mg/wet weight and 3405 pmoles/mg/wet weight | SPM (pancreas) [3, 5]: 299 pmoles/mg/wet weight and 128 pmoles/mg/wet weight and 69 pmoles/mg/wet weight and 441 pmoles/mg/wet weight | SSAT (pancreas) [3, 5]: 50 pmoles/10 min/mg wet weight and 91 pmoles/10 min/mg wet weight and 100 pmoles/10 min/mg wet weight and 18 pmoles/10 min/mg wet weight | MeSpd (pancreas) [3, 6]: 2268 pmoles/mg/wet weight and 3242 pmoles/mg/wet weight and 3098 pmoles/mg/wet weight and 745 pmoles/mg/wet weight and 798 pmoles/mg/wet weight and 954 pmoles/mg/wet weight and 834 pmoles/mg/wet weight and 1993 pmoles/mg/wet weight and 728 pmoles/mg/wet weight | N^1AcSpd (pancreas) [3, 6]: 113 pmoles/mg/wet weight and 45 pmoles/mg/wet weight and 43 pmoles/mg/wet weight and 66 pmoles/mg/wet weight and 71 pmoles/mg/wet weight and 98 pmoles/mg/wet weight and 134 pmoles/mg/wet weight and 20 pmoles/mg/wet weight and 59 pmoles/mg/wet weight | PU (pancreas) [3, 6]: 6768 pmoles/mg/wet weight and 6932 pmoles/mg/wet weight and 4915 pmoles/mg/wet weight and 2335 pmoles/mg/wet weight and 1932 pmoles/mg/wet weight and 2401 pmoles/mg/wet weight and 1911 pmoles/mg/wet weight and 3790 pmoles/mg/wet weight and 1935 pmoles/mg/wet weight | SPD (pancreas) [3, 6]: 478 pmoles/mg/wet weight and 1114 pmoles/mg/wet weight and 1297 pmoles/mg/wet weight and 108 pmoles/mg/wet weight and 96 pmoles/mg/wet weight and 105 pmoles/mg/wet weight and 84 pmoles/mg/wet weight and 1096 pmoles/mg/wet weight and 100 pmoles/mg/wet weight | SPM (pancreas) [3, 6]: 213 pmoles/mg/wet weight and 431 pmoles/mg/wet weight and 408 pmoles/mg/wet weight and 41 pmoles/mg/wet weight and 54 pmoles/mg/wet weight (2×) and 50 pmoles/mg/wet weight and 276 pmoles/mg/wet weight and 46 pmoles/mg/wet weight | SSAT (pancreas) [3, 6]: 1403 pmoles/10 min/mg wet weight and 37 pmoles/10 min/mg wet weight and 40 pmoles/10 min/mg wet weight and 10372 pmoles/10 min/mg wet weight and 3866 pmoles/10 min/mg wet weight and 5823 pmoles/10 min/mg wet weight and 6216 pmoles/10 min/mg wet weight and 1024 pmoles/10 min/mg wet weight and 5748 pmoles/10 min/mg wet weight | MeSpd (pancreas) [3, 7]: 1113 pmoles/mg/wet weight and 371 pmoles/mg/wet weight and 333 pmoles/mg/wet weight and 334 pmoles/mg/wet weight | N^1AcSpd (pancreas) [3, 7]: 16 pmoles/mg/wet weight and 57 pmoles/mg/wet weight and 65 pmoles/mg/wet weight and 42 pmoles/mg/wet weight | PU (pancreas) [3, 7]: 5328 pmoles/mg/wet weight and 3361 pmoles/mg/wet weight and 2782 pmoles/mg/wet weight and 3116 pmoles/mg/wet weight | SPD (pancreas) [3, 7]: 1360 pmoles/mg/wet weight and 124 pmoles/mg/wet weight and 153 pmoles/mg/wet weight and 126 pmoles/mg/wet weight | SPM (pancreas) [3, 7]: 479 pmoles/mg/wet weight and 47 pmoles/mg/wet weight and 61 pmoles/mg/wet weight and 45 pmoles/mg/wet weight | SSAT (pancreas) [3, 7]: 29 pmoles/10 min/mg wet weight and 6855 pmoles/10 min/mg wet weight and 4852 pmoles/10 min/mg wet weight and 6866 pmoles/10 min/mg wet weight | MeSpd (pancreas) [3, 8]: 646 pmoles/mg/wet weight and 1043 pmoles/mg/wet weight and 768 pmoles/mg/wet weight | N^1AcSpd (pancreas) [3, 8]: 43 pmoles/mg/wet weight and 21 pmoles/mg/wet weight and 29 pmoles/mg/wet weight | PU (pancreas) [3, 8]: 1538 pmoles/mg/wet weight and 1268 pmoles/mg/wet weight and 649 pmoles/mg/wet weight | SPD (pancreas) [3, 8]: 367 pmoles/mg/wet weight and 313 pmoles/mg/wet weight and 148 pmoles/mg/wet weight | SPM (pancreas) [3, 8]: 119 pmoles/mg/wet weight and 90 pmoles/mg/wet weight and 51 pmoles/mg/wet weight | SSAT (pancreas) [3, 8]: 92 pmoles/10 min/mg wet weight and 82 pmoles/10 min/mg wet weight and 90 pmoles/10 min/mg wet weight | MeSpd (pancreas) [3, 9]: 1066 pmoles/mg/wet weight and 2249 pmoles/mg/wet weight and 1415 pmoles/mg/wet weight and 1041 pmoles/mg/wet weight and 1493 pmoles/mg/wet weight | N^1AcSpd (pancreas) [3, 9]: 0 pmoles/mg/wet weight | PU (pancreas) [3, 9]: 1522 pmoles/mg/wet weight and 2416 pmoles/mg/wet weight and 1960 pmoles/mg/wet weight and 1744 pmoles/mg/wet weight and 1896 pmoles/mg/wet weight | SPD (pancreas) [3, 9]: 1344 pmoles/mg/wet weight and 1052 pmoles/mg/wet weight and 1928 pmoles/mg/wet weight and 2533 pmoles/mg/wet weight and 369 pmoles/mg/wet weight | SPM (pancreas) [3, 9]: 238 pmoles/mg/wet weight and 254 pmoles/mg/wet weight and 339 pmoles/mg/wet weight and 557 pmoles/mg/wet weight and 112 pmoles/mg/wet weight | SSAT (pancreas) [3, 9]: 10 pmoles/10 min/mg wet weight and 28 pmoles/10 min/mg wet weight and 17 pmoles/10 min/mg wet weight and 8 pmoles/10 min/mg wet weight and 75 pmoles/10 min/mg wet weight | MeSpd (pancreas) [3, 10]: 452 pmoles/mg/wet weight and 1053 pmoles/mg/wet weight and 560 pmoles/mg/wet weight and 629 pmoles/mg/wet weight | N^1AcSpd (pancreas) [3, 10]: 70 pmoles/mg/wet weight and 51 pmoles/mg/wet weight and 49 pmoles/mg/wet weight and 42 pmoles/mg/wet weight | PU (pancreas) [3, 10]: 889 pmoles/mg/wet weight and 7496 pmoles/mg/wet weight and 1078 pmoles/mg/wet weight and 1345 pmoles/mg/wet weight | SPD (pancreas) [3, 10]: 79 pmoles/mg/wet weight and 1571 pmoles/mg/wet weight and 165 pmoles/mg/wet weight and 456 pmoles/mg/wet weight | SPM (pancreas) [3, 10]: 35 pmoles/mg/wet weight and 422 pmoles/mg/wet weight and 61 pmoles/mg/wet weight and 141 pmoles/mg/wet weight | SSAT (pancreas) [3, 10]: 548 pmoles/10 min/mg wet weight and 42 pmoles/10 min/mg wet weight and 4391 pmoles/10 min/mg wet weight and 2001 pmoles/10 min/mg wet weight | plasma amylase ([4]; arginine 250–500 mg/kg, single dose 50 mg/kg): significantly reduced the pancreatitis-associated increase in plasma amylase | plasma amylase levels ([4]; arginine 250–500 mg/kg, two repeated doses): fully normalized | histopathological changes in the pancreas ([4]; arginine-induced pancreatitis): prevented the histopathological changes
